Data from ChEMBL document CHEMBL1148625, “3-(1,1-dioxo-2H-(1,2,4)-benzothiadiazin-3-yl)-4-hydroxy-2(1H)-quinolinones, potent inhibitors of hepatitis C virus RNA-dependent RNA polymerase” (J Med Chem, 2006).

Biological target: RNA-directed RNA polymerase (Hepacivirus hominis, UniProt O39930)
Experiment: Inhibitory activity against HCV delta 21 NS5B RNA polymerase by SPA assay
Set-up: species or system Hepatitis C virus subtype 1b

RNA-directed RNA polymerase, sequence (O39930 whole entry): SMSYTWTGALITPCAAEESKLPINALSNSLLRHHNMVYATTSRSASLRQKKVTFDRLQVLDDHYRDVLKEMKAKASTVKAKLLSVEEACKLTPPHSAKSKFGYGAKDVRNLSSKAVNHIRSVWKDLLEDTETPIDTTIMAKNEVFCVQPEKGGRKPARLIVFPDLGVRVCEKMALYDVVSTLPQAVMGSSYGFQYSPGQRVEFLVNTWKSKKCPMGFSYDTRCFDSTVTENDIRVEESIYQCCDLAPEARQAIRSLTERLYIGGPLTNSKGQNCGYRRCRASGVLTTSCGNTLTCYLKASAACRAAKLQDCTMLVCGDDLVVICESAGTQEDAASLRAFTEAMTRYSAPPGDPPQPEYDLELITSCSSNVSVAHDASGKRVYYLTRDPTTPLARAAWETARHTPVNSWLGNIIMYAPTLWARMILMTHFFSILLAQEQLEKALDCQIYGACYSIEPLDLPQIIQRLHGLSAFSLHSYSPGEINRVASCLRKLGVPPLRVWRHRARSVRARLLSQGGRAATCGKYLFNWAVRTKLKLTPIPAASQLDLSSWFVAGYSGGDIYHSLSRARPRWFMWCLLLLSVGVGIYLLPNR

| Compound | IC50 [nM] |
| --- | --- |
| COCCOc1ccc2c(c1)c(O)c(C1=NS(=O)(=O)c3ccccc3N1)c(=O)n2CCC(C)C | 1740 |
| O=c1c(C2=NS(=O)(=O)c3ccccc3N2)c(O)c2ccccc2n1CC1CCOC1 (centres undefined) | 484 |
| CC(C)(C)c1ccc(Cn2c(=O)c(C3=NS(=O)(=O)c4ccccc4N3)c(O)c3ccccc32)cc1 | > 10000 |
| CC(C)CCn1c(=O)c(C2=Nc3ccccc3S(=O)(=O)N2)c(O)c2c(Br)cccc21 | 105 |
| CC(C)CCn1c(=O)c(C2=Nc3ccccc3S(=O)(=O)N2)c(O)c2ccc(Cl)cc21 | > 10000 |
| O=C(O)CCCn1c(=O)c(C2=Nc3ccccc3S(=O)(=O)N2)c(O)c2ccccc21 | > 10000 |
| O=c1c(C2=Nc3ccccc3S(=O)(=O)N2)c(O)c2ccccc2n1Cc1ccc([N+](=O)[O-])cc1 | 2440 |
| CC(C)CCn1c(=O)c(C2=NS(=O)(=O)c3ccccc3N2)c(O)c2c(Cl)cccc21 | 33 |
| CC(C)(C)CCn1c(=O)c(C2=NS(=O)(=O)c3ccccc3N2)c(O)c2ccccc21 | 21 |
| CC(C)CCn1c(=O)c(C2=NS(=O)(=O)c3ccccc3N2)c(O)c2cc(NC(=O)c3ccccc3)ccc21 | 4230 |
| Cc1cccc2c1c(O)c(C1=Nc3ccccc3S(=O)(=O)N1)c(=O)n2CCC(C)C | 206 |
| CC(C)CCn1c(=O)c(C2=Nc3ccccc3S(=O)(=O)N2)c(O)c2ccc(F)cc21 | 554 |
| CC(C)CCn1c(=O)c(C2=Nc3ccccc3S(=O)(=O)N2)cc2ccccc21 | > 10000 |
| O=c1c(C2=NS(=O)(=O)c3ccccc3N2)c(O)c2ccccc2n1CC1CCCO1 (centres undefined) | 528 |
| O=c1c(C2=Nc3ccccc3S(=O)(=O)N2)c(O)c2ccccc2n1Cc1ccccc1 | 82 |
| CC(C)CCn1c(=O)c(C2=NS(=O)(=O)c3ccccc3N2)c(O)c2cc(I)ccc21 | > 10000 |
| CC(C)CCn1c(=O)c(C2=Nc3ccccc3S(=O)(=O)N2)c(O)c2ccc([N+](=O)[O-])cc21 | > 10000 |
| CC(C)CCn1c(=O)c(C2=Nc3ccccc3S(=O)(=O)N2)c(O)c2cc(F)ccc21 | 20 |
| C/C=C/Cn1c(=O)c(C2=Nc3ccccc3S(=O)(=O)N2)c(O)c2ccccc21 | 150 |
| CC(C)CCn1c(=O)c(C2=NS(=O)(=O)c3ccccc3N2)c(O)c2c([N+](=O)[O-])cccc21 | 338 |
| CC(C)CCn1c(=O)c(C2=Nc3ccccc3S(=O)(=O)N2)c(O)c2cc(Br)ccc21 | 205 |
| C=CCCn1c(=O)c(C2=NS(=O)(=O)c3ccccc3N2)c(O)c2ccccc21 | 90 |
| O=c1c(C2=Nc3ccccc3S(=O)(=O)N2)c(O)c2ccccc2n1CC1CC1 | 78 |
| O=c1c(C2=Nc3ccccc3S(=O)(=O)N2)c(O)c2ccccc2n1CC1CCCCC1 | 367 |

| Compound | IC50 [nM] |
| --- | --- |
| CC1CC1Cn1c(=O)c(C2=Nc3ccccc3S(=O)(=O)N2)c(O)c2ccccc21 (centres undefined) | 41 |
| CC(C)CCn1c(=O)c(C2=Nc3ccccc3S(=O)(=O)N2)c(O)c2cc(OCC#N)ccc21 | 34 |
| COC(C)CCn1c(=O)c(C2=NS(=O)(=O)c3ccccc3N2)c(O)c2ccccc21 (centres undefined) | 82 |
| CC(C)CCn1c(=O)c(C2=NS(=O)(=O)c3ccccc3N2)c(O)c2cc(NC(=O)CC(C)C)ccc21 | 6500 |
| CC(C)Cn1c(=O)c(C2=Nc3ccccc3S(=O)(=O)N2)c(O)c2ccccc21 | 108 |
| COCCn1c(=O)c(C2=Nc3ccccc3S(=O)(=O)N2)c(O)c2ccccc21 | 819 |
| CC(C)CCn1c(=O)c(C2=NS(=O)(=O)c3ccccc3N2)c(O)c2c(O)cccc21 | 47 |
| O=c1c(C2=NS(=O)(=O)c3ccccc3N2)c(O)c2ccccc2n1CCCC(F)(F)F | 106 |
| C#CCCn1c(=O)c(C2=NS(=O)(=O)c3ccccc3N2)c(O)c2ccccc21 | 118 |
| O=c1c(C2=NS(=O)(=O)c3ccccc3N2)c(O)c2ccccc2n1CCc1ccccc1 | > 10000 |
| CC(C)(C)C(=O)Cn1c(=O)c(C2=NS(=O)(=O)c3ccccc3N2)c(O)c2cc(F)ccc21 | 696 |
| NC(=O)CCCn1c(=O)c(C2=Nc3ccccc3S(=O)(=O)N2)c(O)c2ccccc21 | > 10000 |
| CCC(C)CCn1c(=O)c(C2=NS(=O)(=O)c3ccccc3N2)c(O)c2ccccc21 (centres undefined) | 65 |
| O=c1c(C2=NS(=O)(=O)c3ccccc3N2)c(O)c2ccccc2n1CC1CCCC1 | 132 |
| CC(C)CCn1c(=O)c(C2=Nc3ccccc3S(=O)(=O)N2)c(O)c2cc([N+](=O)[O-])ccc21 | 455 |
| CSCCn1c(=O)c(C2=NS(=O)(=O)c3ccccc3N2)c(O)c2ccccc21 | 53 |
| O=c1c(C2=Nc3ccccc3S(=O)(=O)N2)c(O)c2ccccc2n1Cc1cccc([N+](=O)[O-])c1 | 81 |
| O=c1c(C2=NS(=O)(=O)c3ccccc3N2)c(O)c2ccccc2n1Cc1ccc(Br)cc1 | 95 |
| CC(C)CCn1c(=O)c(C2=Nc3ccccc3S(=O)(=O)N2)c(O)c2cc(NCC(=O)O)ccc21 | 21 |
| CC(C)CCn1c(=O)c(C2=Nc3ccccc3S(=O)(=O)N2)c(O)c2cc(NC(=O)CN(C)C)ccc21 | 5810 |
| CS(=O)(=O)CCn1c(=O)c(C2=Nc3ccccc3S(=O)(=O)N2)c(O)c2ccccc21 | 2320 |
| O=c1c(C2=NS(=O)(=O)c3ccccc3N2)c(O)c2ccccc2n1Cc1cccnc1 | 316 |
| CC(C)CCn1c(=O)c(C2=Nc3ccccc3S(=O)(=O)N2)c(O)c2ccc(Br)cc21 | > 10000 |
| CCOC(=O)c1ccc2c(O)c(C3=Nc4ccccc4S(=O)(=O)N3)c(=O)n(CCC(C)C)c2c1 | > 10000 |

| Compound | IC50 [nM] |
| --- | --- |
| CCOC(=O)n1c(=O)c(C2=NS(=O)(=O)c3ccccc3N2)c(O)c2ccccc21 | 2040 |
| O=c1c(C2=NS(=O)(=O)c3ccccc3N2)c(O)c2ccccc2n1Cc1ccccn1 | 2690 |
| CCOC(=O)c1ccc2c(c1)c(O)c(C1=NS(=O)(=O)c3ccccc3N1)c(=O)n2CCC(C)C | > 10000 |
| O=c1[nH]c(-c2c(O)c3cc(F)ccc3n(CCC3CC3)c2=O)nc2ccccc12 | > 10000 |
| CC(C)CCn1c(=O)c(C2=Nc3ccccc3S(=O)(=O)N2)c(O)c2cc(O)ccc21 | 198 |
| O=c1c(C2=NS(=O)(=O)c3ccccc3N2)c(O)c2ccccc2n1CCN1CCCC1 | > 10000 |
| O=c1c(C2=Nc3ccccc3S(=O)(=O)N2)c(O)c2ccccc2n1CC1CCC1 | 49 |
| C#CCCCn1c(=O)c(C2=Nc3ccccc3S(=O)(=O)N2)c(O)c2ccccc21 | 179 |
| CC(C)CCn1c(=O)c(C2=Nc3ccccc3S(=O)(=O)N2)c(O)c2cc(NC(=O)C3CCCC3)ccc21 | 973 |
| CC(Br)CCn1c(=O)c(C2=Nc3ccccc3S(=O)(=O)N2)c(O)c2ccccc21 (centres undefined) | 290 |
| CC(C)CCn1c(=O)c(C2=Nc3ccccc3S(=O)(=O)N2)c(O)c2cc(N)ccc21 | 62 |
| O=S1(=O)N=C(c2c(O)nc3ccccc3c2O)Nc2ccccc21 | > 10000 |
| O=c1c(C2=Nc3ccccc3S(=O)(=O)N2)c(O)c2ccccc2n1CCCCO | 1300 |
| N#Cc1ccccc1Cn1c(=O)c(C2=Nc3ccccc3S(=O)(=O)N2)c(O)c2ccccc21 | 780 |
| CC(C)=CCn1c(=O)c(C2=Nc3ccccc3S(=O)(=O)N2)c(O)c2ccccc21 | 289 |
| CC(C)CCn1c(=O)n(C2=Nc3ccccc3S(=O)(=O)N2)c(=O)c2ccccc21 | 9940 |
| C=CCn1c(=O)c(C2=Nc3ccccc3S(=O)(=O)N2)c(O)c2ccccc21 | > 10000 |
| Cn1c(=O)c(C2=NS(=O)(=O)c3ccccc3N2)c(O)c2ccccc21 | 5590 |
| CCCCCn1c(=O)c(C2=Nc3ccccc3S(=O)(=O)N2)c(O)c2ccccc21 | 80 |
| CN(C)C(=O)Cn1c(=O)c(C2=Nc3ccccc3S(=O)(=O)N2)c(O)c2cc(F)ccc21 | > 10000 |
| CC(C)CCn1c(=O)c(C2=Nc3ccccc3S(=O)(=O)N2)c(O)c2ccc(C(=O)O)cc21 | > 10000 |
| O=c1c(C2=NS(=O)(=O)c3ccccc3N2)c(O)c2ccccc2n1Cc1ccncc1 | 61 |
| O=c1c(C2=Nc3ccccc3S(=O)(=O)N2)c(O)c2ccccc2n1-c1ccccc1 | > 10000 |
| CC(C)CCn1cc(C2=NS(=O)(=O)c3ccccc3N2)c(=O)c2ccccc21 | > 10000 |

| Compound | IC50 [nM] |
| --- | --- |
| CC(CCn1c(=O)c(C2=NS(=O)(=O)c3ccccc3N2)c(O)c2ccccc21)C(F)(F)F (centres undefined) | 44 |
| CC(C)CCn1c(=O)c(C2=Nc3ccccc3S(=O)(=O)N2)c(O)c2cccc([N+](=O)[O-])c21 | > 10000 |
| CC(C)CCn1c(=O)c(C2=Nc3ccccc3S(=O)(=O)N2)c(O)c2c(-c3ccccc3)cccc21 | 144 |
| C[S+]([O-])CCn1c(=O)c(C2=NS(=O)(=O)c3ccccc3N2)c(O)c2ccccc21 (centres undefined) | 2540 |
| O=c1c(C2=NS(=O)(=O)c3ccccc3N2)c(O)c2ccccc2n1CCCc1ccccc1 | > 10000 |
| CC(=O)Nc1ccc2c(c1)c(O)c(C1=NS(=O)(=O)c3ccccc3N1)c(=O)n2CCC(C)C | > 10000 |
| O=c1c(C2=Nc3ccccc3S(=O)(=O)N2)c(O)c2ccccc2n1CCc1cccs1 | > 10000 |
| Cc1nc(Cn2c(=O)c(C3=Nc4ccccc4S(=O)(=O)N3)c(O)c3ccccc32)cs1 | 304 |
| CC(C)CCn1c(=O)c(C2=NS(=O)(=O)c3ccccc3N2)c(O)c2ccc(/C=C/C(N)=O)cc21 | > 10000 |
| CCOC(=O)CNc1ccc2c(c1)c(O)c(C1=Nc3ccccc3S(=O)(=O)N1)c(=O)n2CCC(C)C | 115 |
| O=c1c(C2=NS(=O)(=O)c3ccccc3N2)c(O)c2ccccc2n1CCCO | 2810 |
| CC(C)CCn1c(=O)c(C2=NS(=O)(=O)c3ccccc3N2)c(N)c2ccccc21 | > 10000 |
| O=c1c(C2=NS(=O)(=O)c3ccccc3N2)c(O)c2ccccc2n1CCO | > 10000 |
| O=c1c(C2=NS(=O)(=O)c3ccccc3N2)c(O)c2ccccc2n1CCc1ccsc1 | > 10000 |
| CCn1c(=O)c(C2=Nc3ccccc3S(=O)(=O)N2)c(O)c2ccccc21 | 2220 |
| CC(C)CCn1c(=O)c(C2=NS(=O)(=O)c3ccccc3N2C)c(O)c2ccccc21 | > 2430 |
| NCCCCn1c(=O)c(C2=NS(=O)(=O)c3ccccc3N2)c(O)c2ccccc21 | > 10000 |
| O=c1c(C2=Nc3ccccc3S(=O)(=O)N2)c(O)c2ccccc2n1Cc1ccccc1[N+](=O)[O-] | > 10000 |
| N#CCCCn1c(=O)c(C2=NS(=O)(=O)c3ccccc3N2)c(O)c2ccccc21 | 172 |
| CC(C)CCn1c(=O)c(C2=NS(=O)(=O)c3ccccc3N2)c(O)c2cc(C(=O)O)ccc21 | 1040 |
| CCCn1c(=O)c(C2=Nc3ccccc3S(=O)(=O)N2)c(O)c2ccccc21 | 1550 |
| CN(C)CCn1c(=O)c(C2=Nc3ccccc3S(=O)(=O)N2)c(O)c2ccccc21 | > 10000 |
